What was measured:
[1] = tested on: ncp BVDV; assay: BVDV secretion from infected MDBK cells, real-time PCR; assay type: cell-based, bovine viral diarrhea virus; settings: 750 nM, 3 days
Procedure: In a first study using the ncp strain of BVDV, NB-DNJ was added freely to the culture medium, so that final concentrations ranged between 0 and 750 nM. In separate incubations, NB-DNJ DCPP liposomes were added so that the final lipid concentration was 50 μM and final concentrations of NB-DNJ ranged between 0 and 750 nM. Experiments were carried out in duplicate in 6-well plates. The quantity of secreted BVDV viral particles was measured following 3 days of incubation. Virus secretion analysis was performed by quantitative PCR (real-time PCR) on viral RNA extracted from 500 μl of supernatant. Real-time PCR used primers directed against the ncp BVDV RNA where the forward primer sequence was […] (SEQ ID NO:1), and the reverse primer sequence was […] (SEQ ID NO:2). Results are expressed as the percentage of RNA copies present in treated samples as compared to the untreated control (=100% on the x axis).

[2] = tested on: HIV-1 isolate: JR-FL; assay: p24 secretion of HIV-1-infected PBMCs; assay type: cell-based; settings: for % p24 secretion Week 1-rb / % p24 secretion Week 2-rb / % p24 secretion Week 3-rb / % p24 secretion Week 4-rb: treatment removed 2 weeks
Procedure: (§1) Clearance of HIV-1 primary isolates from infected human cells by NB-DNJ was assessed using phytohemagglutinin (PHA)-activated peripheral blood mononuclear cells (PBMCs) as indicator cells and the determination of p24 antigen production as the end point.
(§2) PBMCs from four normal (uninfected) donors were isolated, pooled, and stimulated with PHA (5 μg/ml) for 48 h followed by PHA plus interleukin-2 (40 U/ml) for 72 h in RPMI 1640 medium containing 10% heat-inactivated fetal bovine serum (FBS), 100 U of penicillin per ml, 100 μg of streptomycin per ml, and 2 mM L-glutamine. All experiments were performed in 96-well microtiter plates. To infect cells, 100 μl of PHA-activated PBMCs (5×10^5/ml) was added to each well, after which an equal volume containing 100 50% tissue culture infective doses (TCID50) of primary isolate stock was added. After an overnight incubation, the cells were washed three times with tissue culture medium, and finally re-suspended in medium containing the appropriate liposome treatment or free NB-DNJ. On day 7, approximately 10-30% of the culture volume containing secreted HIV-1 virions was used to infect naïve PBMCs for a second round of infection and treatment (volume transferred was calculated to be the volume necessary for the untreated control of that isolate to infect naïve cells at a TCID50=100). Rounds of treatment and infection of naïve cells were continued over four weeks, and at every time point cellular supernatant containing secreted virions was isolated and used in capture ELISAs to determine p24 concentration (measure of secretion). Additionally, supernatant isolated at each time point throughout treatment was used to infect naïve PBMCs (TCID50=100) for two weeks with no further treatment, which allowed for the observation of a rebound in viral activity.
(§3) PBMCs infected with 8 primary isolates (listed in Table 3) were incubated in the presence of free NB-DNJ (concentrations ranging 0-1 mM) or liposome-encapsulated NB-DNJ (0-3.75 μM, final lipid concentration of 50 μM).

[3] = tested on: HIV-1 isolate: BR93020; assay: p24 secretion of HIV-1-infected PBMCs; assay type: cell-based; settings: for % p24 secretion Week 1-rb / % p24 secretion Week 2-rb / % p24 secretion Week 3-rb / % p24 secretion Week 4-rb: treatment removed 2 weeks
Procedure: as §1, §2, §3

[4] = tested on: HIV-1 primary isolates; assay: p24 secretion of HIV-1-infected PBMCs, eight primary isolates; assay type: cell-based
Procedure: as §1, §2, §3

[5] = tested on: ncp BVDV; assay: Infectivity of secreted ncp BVDV on naive MDBK cells, immunofluorescence; assay type: cell-based, bovine viral diarrhea virus
Procedure: Using BVDV viral particles collected from the previous experiment (500 μl of supernatant containing secreted BVDV), the infectivity of secreted NB-DNJ-treated BVDV was determined by incubation with naïve MDBK cells for 3 days followed by immunofluorescent staining to identify BVDV proteins in infected cells. Cells were stained post-infection using an anti-BVDV NS2-NS3 monoclonal antibody, followed by a FITC-labelled secondary antibody. Experiments were performed in duplicate using 6-well plates. The percent viral infectivity was calculated by the number of infected cells, identified by the presence of non-structural BVDV proteins, divided by the total cell count determined by DAPI staining of cell nuclei. Results were also normalized to account for decreased or increased viral titres in each sample (results from BVDV secretion experiments).

[6] = Human immunodeficiency virus 1, PBMC, free, three rounds of treatment
[7] = Human immunodeficiency virus 1, PBMC, free, three rounds of treatment, six isolates

What does the source list for `CCCCN1C[C@H](O)[C@@H](O)[C@H](O)[C@H]1CO` [NB-DNJ, N-butyl-1,5-dideoxy-1,5-imino-D-glucitol]?
decrease in number of secreted viral particles ([1]; DCPP liposome-mediated delivery): 2 fold; effect on number of secreted viral particles ([1]; free delivery): no effect; reduction in viral secretion ([2]; 1 mM free in medium, first week): 50%; % p24 secretion Week 1 ([2]; NB-DNJ 250 uM): 107%; % p24 secretion Week 2 ([2]; NB-DNJ 250 uM): 105%; % p24 secretion Week 3 ([2]; NB-DNJ 250 uM): 89%; % p24 secretion Week 4 ([2]; NB-DNJ 250 uM): 93%; % p24 secretion Week 1-rb ([2]; NB-DNJ 250 uM): 104%; % p24 secretion Week 2-rb ([2]; NB-DNJ 250 uM): 101%; % p24 secretion Week 3-rb ([2]; NB-DNJ 250 uM): 97%; % p24 secretion Week 4-rb ([2]; NB-DNJ 250 uM): 91%; % p24 secretion Week 1 ([2]; NB-DNJ 500 uM): 64%; % p24 secretion Week 2 ([2]; NB-DNJ 500 uM): 24%; % p24 secretion Week 3 ([2]; NB-DNJ 500 uM): 5%; % p24 secretion Week 4 ([2]; NB-DNJ 500 uM): 0%; % p24 secretion Week 1-rb ([2]; NB-DNJ 500 uM): 75%; % p24 secretion Week 2-rb ([2]; NB-DNJ 500 uM): 9%; % p24 secretion Week 3-rb ([2]; NB-DNJ 500 uM): 4%; % p24 secretion Week 4-rb ([2]; NB-DNJ 500 uM): 2%; % p24 secretion Week 1 ([2]; NB-DNJ 1000 uM): 44%; % p24 secretion Week 2 ([2]; NB-DNJ 1000 uM): 9%; % p24 secretion Week 3 ([2]; NB-DNJ 1000 uM): 1%; % p24 secretion Week 4 ([2]; NB-DNJ 1000 uM): 0%; % p24 secretion Week 1-rb ([2]; NB-DNJ 1000 uM): 56%; % p24 secretion Week 2-rb ([2]; NB-DNJ 1000 uM): 5%; % p24 secretion Week 3-rb ([2]; NB-DNJ 1000 uM): 1%; % p24 secretion Week 4-rb ([2]; NB-DNJ 1000 uM): 0%; IC50 [3, 6]: 250 µM; IC90 [3, 6]: 375 µM; % p24 secretion Week 1 ([3]; NB-DNJ 250 uM): 89%; % p24 secretion Week 2 ([3]; NB-DNJ 250 uM): 74%; % p24 secretion Week 3 ([3]; NB-DNJ 250 uM): 53%; % p24 secretion Week 4 ([3]; NB-DNJ 250 uM): 55%; % p24 secretion Week 1-rb ([3]; NB-DNJ 250 uM): 97%; % p24 secretion Week 2-rb ([3]; NB-DNJ 250 uM): 77%; % p24 secretion Week 3-rb ([3]; NB-DNJ 250 uM): 71%; % p24 secretion Week 4-rb ([3]; NB-DNJ 250 uM): 59%; % p24 secretion Week 1 ([3]; NB-DNJ 500 uM): 60%; % p24 secretion Week 2 ([3]; NB-DNJ 500 uM): 19%; % p24 secretion Week 3 ([3]; NB-DNJ 500 uM): 1%; % p24 secretion Week 4 ([3]; NB-DNJ 500 uM): 1%; % p24 secretion Week 1-rb ([3]; NB-DNJ 500 uM): 68%; % p24 secretion Week 2-rb ([3]; NB-DNJ 500 uM): 3%; % p24 secretion Week 3-rb ([3]; NB-DNJ 500 uM): 0%; % p24 secretion Week 4-rb ([3]; NB-DNJ 500 uM): 1%; % p24 secretion Week 1 ([3]; NB-DNJ 1000 uM): 58%; % p24 secretion Week 2 ([3]; NB-DNJ 1000 uM): 2%; % p24 secretion Week 3 ([3]; NB-DNJ 1000 uM): 0%; % p24 secretion Week 4 ([3]; NB-DNJ 1000 uM): 0%; % p24 secretion Week 1-rb ([3]; NB-DNJ 1000 uM): 44%; % p24 secretion Week 2-rb ([3]; NB-DNJ 1000 uM): 0%; % p24 secretion Week 3-rb ([3]; NB-DNJ 1000 uM): 0%; % p24 secretion Week 4-rb ([3]; NB-DNJ 1000 uM): 0%; reduction in viral secretion ([4]; 1 mM free in medium, first week, most isolates): 30-40%; enhancement of antiviral activity, liposome vs free ([4]; DOPE:CHEMS:PEG-PE liposomes): 10^4-10^5 fold; IC50 [4, 7]: 400 µM; IC90 [4, 7]: 500 µM; final NB-DNJ concentration with antiviral activity similar to 500 μM free ([4]; encapsulated in DOPE:CHEMS:PEG-PE liposomes, all isolates): 3.75 to 37.5 nM; reduction in viral activity ([4]; free, all isolates): ≥ 90%; antiviral concentration (lowest to clear viral activity in all isolates) ([4]; free, four weeks treatment): 500 µM; effect on BVDV infectivity ([5]; 750 nM added freely to the medium): little to no effect; naive MDBK cells infected by viral progeny ([5]; 750 nM delivered via DCPP liposomes): less than 1%; antiviral effect vs controls ([5]; 750 nM in DCPP liposomes): over 20 fold; naive MDBK cells infected by viral progeny ([5]; free, up to 750 nM): approximately 20%

Source: patent publication US20110182982A1, “LIPOSOME TREATMENT OF VIRAL INFECTIONS” (University of Oxford, priority 2006, published 2011)
